Source: patent publication US20260226064A1, “POLYCYCLIC COMPOUND FOR TREATING NEUROLOGICAL DISEASES AND TUMORS” (Shanghai Institute of Organic Chemistry, Chinese Academy of …, priority 2023, published 2026)
Like-named read-outs stand apart in the source and are kept apart here.

Experiments:
[1] = system: acetylated microtubule in HEK293T cells; test: Microtubule-Stabilizing Activity Assay (acetylated microtubule immunoblot, HEK293T, colchicine challenge); assay type: cell-based; details: 1 h pre-incubation, then colchicine 1 μM 3 h, relative to CNDR-51657 at 500 nM = 1.00; for Microtubule-Stabilizing Activity 50 nM: compound 50 nM; for Microtubule-Stabilizing Activity 500 nM: compound 500 nM
Procedure: Compound solvent: 100% dimethyl sulfoxide (DMSO). Cell line: HEK293T (ATCC, CRL3216). Culture conditions: Cells were cultured in Dulbecco's Modified Eagle's Medium (DMEM) containing 10% fetal bovine serum and 1% penicillin/streptomycin. Cells were cultured at 37° C. in a Thermo-Fisher incubator with a humidified atmosphere of 5% carbon dioxide.
One day prior to the experiment, 100,000 cells were seeded at a density of 200,000 cells/ml in a 24-well plate.
On the day of the experiment, 20 μl of PBS phosphate buffer containing the test compound at experimental concentrations or an equivalent volume of DMSO was added to each well. After incubating at 37° C. for 1 hour, colchicine was added to each well at a final concentration of 1 μM, followed by an additional 3-hour incubation at 37° C. The plate was then placed on ice. The medium in each well was removed, and the cells were washed with ice-cold PBS. After aspirating the PBS, 0.1 mL of ice-cold RIPA lysis buffer (containing 0.5% sodium deoxycholate, 0.1% SDS, 1% NP-40, 5 mM EDTA, pH 8.0) was quickly added. Prior to use, a commercial protease inhibitor cocktail (1:500) and 1 μM deacetylase inhibitor Trichostatin A (Sangon Biotech Co., Ltd.) were added to the cell lysis buffer. The cell lysate were transferred to a 1.5 ml centrifuge tube, sonicated, and centrifuged at 13,000 rpm for 10 minutes. The supernatant was collected, and protein concentration was determined using the BCA assay.
Based on existing literature (Black, 1989; Kurt, 2011), acetylated microtubule was used as an indicator of microtubule polymerization to assess the microtubule-stabilizing efficacy of the compounds. HEK293T cell lysates were analyzed by SDS-PAGE (7.5% gel) and immunoblotted using acetylated microtubule antibody (1:20,000, Sigma-Aldrich, T7451) and α-microtubule antibody (1:2,000, Proteintech, 11224-1-AP). After incubation with fluorescent dye-conjugated IgG (1:40,000, Licor), the blots were visualized using an Odyssey-Dlx imaging system. Grayscale analysis was performed using ImageJ.
The compound activity was quantified with the microtubule-stabilizing activity of CNDR-51657 (C5) (Jane, 2016) at 500 nM as 1.00.

[2] = Mouse Oral Pharmacokinetic Study; assay type: in vivo; details: male CD1 mice, oral gavage 10 mg/kg; for Kp at 4 h: brain/plasma, read-out: Cbrain/Cplasma; for AUC(0-t): read-out: AUC0-4h
Procedure: Healthy male CD1 mice were used as experimental animals. The drug was administered by oral gavage at a dose of 10 mg/kg with a dosing volume of 10 mL/kg. Drug preparation: 10 mg of the compound was placed in 10 mL of 50% PEG400 or 20% HPb-cyclodextrin, ground and shaken to ensure uniform distribution of the compound in small particle size, followed by oral administration. Blood samples were collected at 30 min, 1 h, 2 h, and 4 h post-dose, and brain tissues were sampled at 4 h. EDTA dipotassium salt was added to the blood samples, and plasma was obtained after centrifugation. The supernatant was analyzed after dilution with 5 volumes of acetonitrile and centrifugation. The brain tissue homogenate was diluted with 3.5 volumes of acetonitrile, centrifuged, and the supernatant was collected for analysis. The samples were then analyzed by liquid chromatography-tandem mass spectrometry (LC-MS/MS): the instrument was AB Sciex 3500; the mobile phase consisted of 0.1% formic acid in water (A)/0.1% formic acid in acetonitrile (B), with gradient elution.

[3] = mouse, brain tissue at 4 h, read-out: Cbrain@4h
[4] = mouse, plasma at 4 h, read-out: Cpasma@4h

SMILES | Microtubule-Stabilizing Activity 50 nM [1] | Microtubule-Stabilizing Activity 500 nM [1] | other results
CNCCCOc1cc(F)c(-c2c(Cl)nc3ncnn3c2N[C@@H](C)C(F)(F)F)c(F)c1 [Cevipubulin, reference compound] | 1.65 | 1.68 | Cbrain/Cplasma ([2]; 4 h): 0.10; Cbrain@4h ([2]; brain tissue at 4 h): 38 ng/mL; Cmax ([2]; plasma): 660 ng/mL; Tmax ([2]; plasma): 54 min; Cpasma@4h ([2]; plasma at 4 h): 376 ng/mL; AUC0-4h ([2]; plasma, 0-4 h): 1826 ng·h/mL
CNC1CC2(C1)CC(Oc1cc(F)c(-c3c(Cl)nc4ncnn4c3N[C@@H](C)C(F)(F)F)c(F)c1)C2 (stereo partly drawn) [Example 11, (S)-5-Chloro-6-(2,6-difluoro-4-((6-(methylamino)spiro[3.3]heptan-2-yl)oxy)phenyl)-N-(1,1,1-trifluoropropan-2-yl)-[1,2,4]triazolo[1,5-a]pyrimidin-7-amine] | 0.60 | 1.45 | Kp at 4 h ([2]; mouse, 4 h): 0.11; concentration at 4 h [2, 3]: 252 ng/mL; concentration at 4 h [2, 4]: 2200 ng/mL; AUC(0-t) ([2]; mouse, plasma, 0-4 h): 11200 ng·h/mL; Cmax ([2]; mouse, plasma, read-out: Cmax): 4140 ng/mL; Tmax ([2]; mouse, plasma, read-out: Tmax): 45 min
C[C@H](Nc1c(-c2c(F)cc(OCC3[C@H]4CNC[C@@H]34)cc2F)c(Cl)nc2ncnn12)C(F)(F)F (stereo partly drawn) [Example 24, 6-(4-(((1R,5S,6r)-3-Azabicyclo[3.1.0]hex-6-yl)methoxy)-2,6-difluorophenyl)-5-chloro-N—((S)-1,1,1-trifluoropropan-2-yl)-[1,2,4]triazolo[1,5-a]pyrimidin-7-amine] | 0.86 | 1.63 | Kp at 4 h ([2]; mouse, 4 h): 0.17; concentration at 4 h [2, 3]: 147 ng/mL; concentration at 4 h [2, 4]: 874 ng/mL; AUC(0-t) ([2]; mouse, plasma, 0-4 h): 5960 ng·h/mL; Cmax ([2]; mouse, plasma, read-out: Cmax): 2640 ng/mL; Tmax ([2]; mouse, plasma, read-out: Tmax): 45 min
C[C@H](Nc1c(-c2c(F)cc(O[C@H]3C[C@@H]4CN(C)C[C@@H]4C3)cc2F)c(Cl)nc2ncnn12)C(F)(F)F [Example 43, 5-Chloro-6-(2,6-difluoro-4-(((3aR,5s,6aS)-2-methyloctahydrocyclopenta[c]pyrrol-5-yl)oxy)phenyl)-N—((S)-1,1,1-trifluoropropan-2-yl)-[1,2,4]triazolo[1,5-a]pyrimidin-7-amine] | 0.09 | 2.69 | 
CC(C)[C@@H](C)Nc1c(-c2c(F)cc(C#C[C@@H]3[C@H]4CNC[C@@H]34)cc2F)c(Cl)nc2ncnn12.Cl [Example 44, 6-(4-(((1R,5S,6s)-3-Azabicyclo[3.1.0]hexan-6-yl)ethynyl)-2,6-difluorophenyl)-5-chloro-N—((R)-3-methylbutan-2-yl)-[1,2,4]triazolo[1,5-a]pyrimidin-7-amine hydrochloride] |  | 1.6 | 
C[C@@H](Nc1c(-c2c(F)cc(C#C[C@@H]3[C@H]4CNC[C@@H]34)cc2F)c(Cl)nc2ncnn12)C1CCC1.Cl [Example 45, 6-(4-(((1R,5S,6s)-3-Azabicyclo[3.1.0]hex-6-yl)ethynyl)-2,6-difluorophenyl)-5-chloro-N—((R)-1-cyclobutylethyl)-[1,2,4]triazolo[1,5-a]pyrimidin-7-amine hydrochloride] | 1.1 | 1.3 | 
C[C@H](Nc1c(-c2c(F)cc(C#C[C@@H]3[C@H]4CNC[C@@H]34)cc2F)c(Cl)nc2ncnn12)C(F)(F)F.Cl [Example 47] | 1.23 | 1.38 | 
Cl.Fc1cc(C#C[C@@H]2[C@H]3CNC[C@@H]23)cc(F)c1-c1c(Cl)nc2ncnn2c1NCC(F)(F)F [Example 49, 6-(4-(((1R,5S,6s)-3-Azabicyclo[3.1.0]hexan-6-yl)ethynyl)-2,6-difluorophenyl)-5-chloro-N-(2,2,2-trifluoroethyl)-[1,2,4]triazolo[1,5-a]pyrimidin-7-amine hydrochloride] | 1.04 | 1.74 | 
CN1C[C@@H]2C(C#Cc3cc(F)c(-c4c(Cl)nc5ncnn5c4NCC(F)(F)F)c(F)c3)[C@@H]2C1 (stereo partly drawn) [Example 50, 5-Chloro-6-(2,6-difluoro-4-(((1R,5S,6s)-3-methyl-3-azabicyclo[3.1.0]hexan-6-yl)ethynyl)phenyl)-N-(2,2,2-trifluoroethyl)-[1,2,4]triazolo[1,5-a]pyrimidin-7-amine] | 2.0 | 2.78 | 
CC(C)[C@@H](C)Nc1c(-c2c(F)cc(/C=C/[C@@H]3[C@H]4CNC[C@@H]34)cc2F)c(Cl)nc2ncnn12.Cl [Example 51, 6-(4-((E)-2-((1R,5S,6s)-3-Azabicyclo[3.1.0]hexan-6-yl)vinyl)-2,6-difluorophenyl)-5-chloro-N—((R)-3-methylbutan-2-yl)-[1,2,4]triazolo[1,5-a]pyrimidin-7-amine hydrochloride] |  | 1.85 | 
C[C@@H](Nc1c(-c2c(F)cc(/C=C/[C@@H]3[C@H]4CNC[C@@H]34)cc2F)c(Cl)nc2ncnn12)C1CCC1.Cl [Example 52, 6-(4-((E)-2-((1R,5S,6s)-3-Azabicyclo[3.1.0]hexan-6-yl)vinyl)-2,6-difluorophenyl)-5-chloro-N—((R)-1-cyclobutylethyl)-[1,2,4]triazolo[1,5-a]pyrimidin-7-amine hydrochloride] | 1.41 | 1.69 | 
C[C@H](Nc1c(-c2c(F)cc(/C=C/[C@@H]3[C@H]4CNC[C@@H]34)cc2F)c(Cl)nc2ncnn12)C(F)(F)F.Cl [Example 53, 6-(4-((E)-2-((1R,5S,6s)-3-Azabicyclo[3.1.0]hexan-6-yl)vinyl)-2,6-difluorophenyl)-5-chloro-N—((S)-1,1,1-trifluoropropan-2-yl)-[1,2,4]triazolo[1,5-a]pyrimidin-7-amine hydrochloride] | 1.23 | 1.38 | 
Cl.Fc1cc(/C=C/[C@@H]2[C@H]3CNC[C@@H]23)cc(F)c1-c1c(Cl)nc2ncnn2c1NCC(F)(F)F [Example 54, 6-(4-((E)-2-((1R,5S,6s)-3-Azabicyclo[3.1.0]hexan-6-yl)vinyl)-2,6-difluorophenyl)-5-chloro-N-(2,2,2-trifluoroethyl)-[1,2,4]triazolo[1,5-a]pyrimidin-7-amine hydrochloride] | 1.56 | 3.12 | 
C[C@@H](Nc1c(-c2c(F)cc(/C=C/[C@@H]3[C@H]4CN(C)C[C@@H]34)cc2F)c(Cl)nc2ncnn12)C1CCC1 [Example 56, 5-Chloro-N—((R)-1-cyclobutylethyl)-6-(2,6-difluoro-4-((E)-2-((1R,5S,6s)-3-methyl-3-azabicyclo[3.1.0]hexan-6-yl)vinyl)phenyl)-[1,2,4]triazolo[1,5-a]pyrimidin-7-amine] | 1.47 | 1.69 | 
CC(C)[C@@H](C)Nc1c(-c2c(F)cc(/C=C/[C@@H]3[C@H]4CN(C)C[C@@H]34)cc2F)c(Cl)nc2ncnn12 [Example 59] | 0.61 | 1.87 | 
